Activity calls are given as the source filed them.
Assays:
[1] = biological target: T1, Acyl-CoA dehydrogenase family member 10 (Homo sapiens, UniProt Q6JQN1)
T1 sequence (Q6JQN1 whole entry): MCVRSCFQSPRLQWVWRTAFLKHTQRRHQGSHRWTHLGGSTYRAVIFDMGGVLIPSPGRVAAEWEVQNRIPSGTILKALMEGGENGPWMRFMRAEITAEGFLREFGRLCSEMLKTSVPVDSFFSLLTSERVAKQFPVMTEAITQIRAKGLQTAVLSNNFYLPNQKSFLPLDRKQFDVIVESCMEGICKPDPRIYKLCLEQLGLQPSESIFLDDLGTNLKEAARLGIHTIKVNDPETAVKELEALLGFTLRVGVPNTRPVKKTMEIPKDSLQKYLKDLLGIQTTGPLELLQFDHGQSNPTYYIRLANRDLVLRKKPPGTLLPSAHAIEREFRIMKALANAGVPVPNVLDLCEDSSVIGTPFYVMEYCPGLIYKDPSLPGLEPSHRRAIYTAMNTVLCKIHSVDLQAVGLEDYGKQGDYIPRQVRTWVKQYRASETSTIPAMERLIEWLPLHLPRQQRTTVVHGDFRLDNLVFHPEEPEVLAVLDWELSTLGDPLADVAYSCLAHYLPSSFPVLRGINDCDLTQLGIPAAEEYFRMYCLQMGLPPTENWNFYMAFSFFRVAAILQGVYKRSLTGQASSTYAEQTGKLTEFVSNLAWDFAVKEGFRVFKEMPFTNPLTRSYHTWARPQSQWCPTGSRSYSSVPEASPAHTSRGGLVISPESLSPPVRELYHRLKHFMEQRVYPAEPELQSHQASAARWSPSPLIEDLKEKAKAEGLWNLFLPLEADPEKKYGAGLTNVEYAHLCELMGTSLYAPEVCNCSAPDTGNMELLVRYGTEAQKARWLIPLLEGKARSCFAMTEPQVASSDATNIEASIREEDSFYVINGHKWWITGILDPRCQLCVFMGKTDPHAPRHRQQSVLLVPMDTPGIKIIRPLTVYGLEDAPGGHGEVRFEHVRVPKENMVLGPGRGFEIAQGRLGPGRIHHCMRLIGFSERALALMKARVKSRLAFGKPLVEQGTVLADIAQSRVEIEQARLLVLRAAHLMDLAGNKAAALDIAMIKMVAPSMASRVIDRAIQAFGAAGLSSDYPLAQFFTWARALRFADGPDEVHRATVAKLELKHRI

[2] = biological target: T2, Very long-chain specific acyl-CoA dehydrogenase, mitochondrial (Homo sapiens, UniProt P49748)
T2 sequence (P49748 whole entry): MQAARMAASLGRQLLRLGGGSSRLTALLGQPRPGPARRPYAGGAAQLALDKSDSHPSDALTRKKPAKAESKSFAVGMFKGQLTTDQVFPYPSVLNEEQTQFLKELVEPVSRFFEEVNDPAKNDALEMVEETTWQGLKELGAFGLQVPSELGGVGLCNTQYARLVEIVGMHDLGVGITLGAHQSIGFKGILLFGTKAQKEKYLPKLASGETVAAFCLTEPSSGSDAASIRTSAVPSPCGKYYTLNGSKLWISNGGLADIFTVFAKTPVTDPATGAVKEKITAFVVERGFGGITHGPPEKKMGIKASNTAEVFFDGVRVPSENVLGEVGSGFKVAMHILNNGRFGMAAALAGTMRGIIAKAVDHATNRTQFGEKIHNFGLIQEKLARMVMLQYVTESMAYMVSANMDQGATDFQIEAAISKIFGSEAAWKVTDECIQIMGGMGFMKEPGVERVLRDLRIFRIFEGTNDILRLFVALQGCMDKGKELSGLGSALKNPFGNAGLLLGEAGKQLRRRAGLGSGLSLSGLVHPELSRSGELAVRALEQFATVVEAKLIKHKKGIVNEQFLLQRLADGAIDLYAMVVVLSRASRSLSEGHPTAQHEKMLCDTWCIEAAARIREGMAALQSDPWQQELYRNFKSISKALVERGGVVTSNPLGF

Adenosine kinase = Adenosine kinase (Homo sapiens, UniProt P55263)
Chain of Adenosine kinase (P55263 whole entry): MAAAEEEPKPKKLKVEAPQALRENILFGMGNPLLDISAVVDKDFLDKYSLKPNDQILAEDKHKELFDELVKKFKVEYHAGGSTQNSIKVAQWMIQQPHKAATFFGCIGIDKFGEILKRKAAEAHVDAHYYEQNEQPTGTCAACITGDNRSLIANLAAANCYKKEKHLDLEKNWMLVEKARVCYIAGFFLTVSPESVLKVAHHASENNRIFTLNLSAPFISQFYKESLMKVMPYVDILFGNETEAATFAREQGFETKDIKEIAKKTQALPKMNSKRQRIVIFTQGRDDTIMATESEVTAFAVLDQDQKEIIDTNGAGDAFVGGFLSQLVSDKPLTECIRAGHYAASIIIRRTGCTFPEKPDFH

[3] = biological target: BMP-2-inducible protein kinase (Homo sapiens, UniProt Q9NSY1)
Chain of BMP-2-inducible protein kinase (Q9NSY1 whole entry): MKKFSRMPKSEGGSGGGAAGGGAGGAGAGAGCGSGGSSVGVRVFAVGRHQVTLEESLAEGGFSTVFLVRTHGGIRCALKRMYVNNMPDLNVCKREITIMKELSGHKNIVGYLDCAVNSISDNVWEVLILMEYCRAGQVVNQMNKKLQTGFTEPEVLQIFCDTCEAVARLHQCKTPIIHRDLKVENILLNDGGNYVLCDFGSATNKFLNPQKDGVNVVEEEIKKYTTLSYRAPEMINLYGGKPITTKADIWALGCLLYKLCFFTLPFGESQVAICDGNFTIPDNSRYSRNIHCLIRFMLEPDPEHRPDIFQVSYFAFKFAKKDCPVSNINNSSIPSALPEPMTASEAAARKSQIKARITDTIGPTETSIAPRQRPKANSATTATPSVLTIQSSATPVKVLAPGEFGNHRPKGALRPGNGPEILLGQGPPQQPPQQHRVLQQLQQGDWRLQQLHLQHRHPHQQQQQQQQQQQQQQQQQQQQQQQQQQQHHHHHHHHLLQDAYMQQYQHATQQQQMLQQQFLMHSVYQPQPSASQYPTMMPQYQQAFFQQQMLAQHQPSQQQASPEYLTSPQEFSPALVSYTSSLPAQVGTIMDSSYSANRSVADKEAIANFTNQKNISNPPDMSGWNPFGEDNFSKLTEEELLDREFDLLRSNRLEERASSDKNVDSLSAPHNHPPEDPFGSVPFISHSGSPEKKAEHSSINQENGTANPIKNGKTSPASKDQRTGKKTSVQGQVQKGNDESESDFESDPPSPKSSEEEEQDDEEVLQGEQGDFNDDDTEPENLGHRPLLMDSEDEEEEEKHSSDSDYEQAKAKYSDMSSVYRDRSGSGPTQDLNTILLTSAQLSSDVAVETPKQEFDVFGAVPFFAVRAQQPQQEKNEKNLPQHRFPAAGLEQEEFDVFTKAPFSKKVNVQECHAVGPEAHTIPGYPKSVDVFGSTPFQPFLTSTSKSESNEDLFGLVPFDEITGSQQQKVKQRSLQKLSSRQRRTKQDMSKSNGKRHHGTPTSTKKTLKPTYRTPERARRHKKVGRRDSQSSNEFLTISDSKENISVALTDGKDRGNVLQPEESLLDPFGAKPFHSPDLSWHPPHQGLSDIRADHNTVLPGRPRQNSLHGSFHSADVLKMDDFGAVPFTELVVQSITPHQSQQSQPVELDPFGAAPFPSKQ

[4] = biological target: Putative heat shock protein HSP 90-beta 2 (Homo sapiens, UniProt Q58FF8)
Chain of Putative heat shock protein HSP 90-beta 2 (Q58FF8 whole entry): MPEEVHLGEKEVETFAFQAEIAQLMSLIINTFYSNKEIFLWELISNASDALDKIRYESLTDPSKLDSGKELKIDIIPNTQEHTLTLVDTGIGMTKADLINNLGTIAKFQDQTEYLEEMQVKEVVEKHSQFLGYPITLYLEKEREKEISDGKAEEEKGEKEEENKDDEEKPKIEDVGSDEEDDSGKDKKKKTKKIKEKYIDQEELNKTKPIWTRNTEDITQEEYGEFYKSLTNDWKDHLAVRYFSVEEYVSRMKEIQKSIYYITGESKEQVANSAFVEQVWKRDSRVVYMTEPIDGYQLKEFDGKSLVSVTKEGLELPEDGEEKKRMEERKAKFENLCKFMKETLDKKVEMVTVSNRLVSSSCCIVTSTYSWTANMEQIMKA

[5] = biological target: T3, Inhibitor of nuclear factor kappa-B kinase subunit epsilon (Homo sapiens, UniProt Q14164)
T3 sequence (Q14164 whole entry): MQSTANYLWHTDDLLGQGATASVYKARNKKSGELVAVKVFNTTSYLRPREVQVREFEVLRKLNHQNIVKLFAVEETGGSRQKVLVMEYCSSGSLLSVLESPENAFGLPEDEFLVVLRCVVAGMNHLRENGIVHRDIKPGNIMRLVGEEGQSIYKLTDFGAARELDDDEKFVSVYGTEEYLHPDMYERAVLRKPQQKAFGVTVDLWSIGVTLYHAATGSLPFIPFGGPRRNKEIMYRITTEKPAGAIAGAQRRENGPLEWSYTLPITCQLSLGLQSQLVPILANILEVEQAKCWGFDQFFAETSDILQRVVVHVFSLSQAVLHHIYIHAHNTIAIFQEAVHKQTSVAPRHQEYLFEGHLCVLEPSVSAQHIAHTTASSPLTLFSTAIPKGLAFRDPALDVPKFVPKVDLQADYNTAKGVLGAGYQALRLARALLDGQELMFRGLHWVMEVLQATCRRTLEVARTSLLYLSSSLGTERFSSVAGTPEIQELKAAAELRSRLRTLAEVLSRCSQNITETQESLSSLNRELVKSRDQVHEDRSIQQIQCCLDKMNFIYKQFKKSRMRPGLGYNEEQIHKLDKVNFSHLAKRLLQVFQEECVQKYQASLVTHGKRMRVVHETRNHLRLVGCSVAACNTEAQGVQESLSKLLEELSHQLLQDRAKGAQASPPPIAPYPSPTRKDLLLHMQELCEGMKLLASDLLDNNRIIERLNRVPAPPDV

[6] = biological target: Mitogen-activated protein kinase 7 (Homo sapiens, UniProt Q13164)
Chain of Mitogen-activated protein kinase 7 (Q13164 whole entry): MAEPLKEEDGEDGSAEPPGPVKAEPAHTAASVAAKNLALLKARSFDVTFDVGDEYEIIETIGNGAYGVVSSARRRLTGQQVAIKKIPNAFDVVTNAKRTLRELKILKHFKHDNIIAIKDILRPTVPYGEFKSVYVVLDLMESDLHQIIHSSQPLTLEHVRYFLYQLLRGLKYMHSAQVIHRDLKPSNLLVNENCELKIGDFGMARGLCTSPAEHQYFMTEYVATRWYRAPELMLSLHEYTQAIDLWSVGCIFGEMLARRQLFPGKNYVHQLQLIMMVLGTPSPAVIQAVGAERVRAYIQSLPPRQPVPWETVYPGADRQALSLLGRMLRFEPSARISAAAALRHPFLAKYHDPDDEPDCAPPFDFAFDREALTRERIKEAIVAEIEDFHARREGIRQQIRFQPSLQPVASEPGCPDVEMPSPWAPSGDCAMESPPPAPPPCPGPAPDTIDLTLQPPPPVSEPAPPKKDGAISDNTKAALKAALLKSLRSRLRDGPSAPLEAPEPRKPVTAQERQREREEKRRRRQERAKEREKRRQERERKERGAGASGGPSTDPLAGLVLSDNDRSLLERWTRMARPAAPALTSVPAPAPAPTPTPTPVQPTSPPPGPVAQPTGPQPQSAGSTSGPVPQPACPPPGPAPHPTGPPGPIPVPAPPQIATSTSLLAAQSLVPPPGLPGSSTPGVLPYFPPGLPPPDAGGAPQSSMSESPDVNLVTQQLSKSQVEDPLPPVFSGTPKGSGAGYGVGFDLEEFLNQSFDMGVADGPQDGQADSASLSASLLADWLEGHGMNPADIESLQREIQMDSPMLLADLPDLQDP

[7] = biological target: Serine/threonine-protein kinase PAK 4 (Homo sapiens, UniProt O96013)
Chain of Serine/threonine-protein kinase PAK 4 (O96013 whole entry): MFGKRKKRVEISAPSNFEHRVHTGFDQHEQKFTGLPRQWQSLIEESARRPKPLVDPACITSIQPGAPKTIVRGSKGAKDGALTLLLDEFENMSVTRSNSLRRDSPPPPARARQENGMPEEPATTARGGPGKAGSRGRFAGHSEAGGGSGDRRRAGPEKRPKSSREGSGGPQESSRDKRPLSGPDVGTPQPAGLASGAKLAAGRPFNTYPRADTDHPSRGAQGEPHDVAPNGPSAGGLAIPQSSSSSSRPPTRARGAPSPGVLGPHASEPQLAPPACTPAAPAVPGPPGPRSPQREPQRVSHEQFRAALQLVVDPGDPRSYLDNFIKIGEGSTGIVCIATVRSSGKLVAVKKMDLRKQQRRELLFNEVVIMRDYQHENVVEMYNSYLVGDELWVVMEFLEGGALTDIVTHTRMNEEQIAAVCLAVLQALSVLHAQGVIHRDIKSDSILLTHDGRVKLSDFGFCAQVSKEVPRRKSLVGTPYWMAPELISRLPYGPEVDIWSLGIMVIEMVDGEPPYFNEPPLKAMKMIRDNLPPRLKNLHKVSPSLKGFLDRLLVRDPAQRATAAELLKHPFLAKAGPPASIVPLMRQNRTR

[8] = biological target: Membrane-associated progesterone receptor component 1 (Homo sapiens, UniProt O00264)
Chain of Membrane-associated progesterone receptor component 1 (O00264 whole entry): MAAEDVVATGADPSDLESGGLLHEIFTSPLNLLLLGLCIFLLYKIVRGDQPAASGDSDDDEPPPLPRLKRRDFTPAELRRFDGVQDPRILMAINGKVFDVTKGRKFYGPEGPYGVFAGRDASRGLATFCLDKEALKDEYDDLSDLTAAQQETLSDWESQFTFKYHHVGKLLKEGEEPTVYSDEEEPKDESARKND

Rab-like protein 3 = biological target: T4, Rab-like protein 3 (Homo sapiens, UniProt Q5HYI8)
T4 sequence (Q5HYI8 whole entry): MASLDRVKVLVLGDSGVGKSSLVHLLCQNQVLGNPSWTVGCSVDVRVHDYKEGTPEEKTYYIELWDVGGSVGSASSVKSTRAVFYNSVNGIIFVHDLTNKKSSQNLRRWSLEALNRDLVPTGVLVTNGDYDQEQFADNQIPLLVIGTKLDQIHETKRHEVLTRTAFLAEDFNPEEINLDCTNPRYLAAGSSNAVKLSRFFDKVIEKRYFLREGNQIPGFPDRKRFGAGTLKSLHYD

Measured: Kd
Note: in the data inactive means no Kd found up to 30 µM.

O=C1NC(=O)[C@@H](c2cn3c4c(cccc24)CCC3)[C@@H]1c1c[nH]c2ccccc12 [TIVANTINIB]
inactive: [1] > 30 µM | [2] > 30 µM | Adenosine kinase > 30 µM | [3] > 30 µM | [4] > 30 µM | [5] > 30 µM | [6] > 30 µM | [7] > 30 µM | [8] > 30 µM | Rab-like protein 3 > 30 µM

C[C@@H](NC(=O)c1ncnc(N)c1Cl)c1ncc(C(=O)Nc2cc(C(F)(F)F)c(Cl)cn2)s1 [TOVORAFENIB]
inactive: [1] > 30 µM | [2] > 30 µM | Adenosine kinase > 30 µM | [3] > 30 µM | [4] > 30 µM | [5] > 30 µM | [6] > 30 µM | [7] > 30 µM | [8] > 30 µM | Rab-like protein 3 > 30 µM

Cc1cc(Nc2ncnc3ccc(NC4=NC(C)(C)CO4)cc23)ccc1Oc1ccn2ncnc2c1 [TUCATINIB]
inactive: [1] > 30 µM | [2] > 30 µM | Adenosine kinase > 30 µM | [3] > 30 µM | [4] > 30 µM | [5] > 30 µM | [6] > 30 µM | [7] > 30 µM | [8] > 30 µM | Rab-like protein 3 > 30 µM

— ChEMBL document CHEMBL3991601, “The target landscape of clinical kinase drugs” (Science, 2017)
